# In article PMC10954709, “Structure of an open KATP channel reveals tandem PIP2 binding sites mediating the Kir6.2 and SUR1 regulatory interface” (Nature Communications, 2024):
# Legend:
# Kir6.2^Q52R KATP channel = system: Kir6.2^Q52R KATP channel; design: method as in PMID 16123353, PMID 15583126; details: Kir6.2^Q52R relative to WT; cited from earlier work
# [1] = system: KATP channel with engineered Kir6.2-Q52/SUR1-E203 charged amino acid pair; design: method as in PMID 22802363; details: engineered charged amino acid pair enforcing Kir6.2-Q52 and SUR1-E203 interaction; cited from earlier work
# [2] = target: T1, SUR1^K134A/Kir6.2^Q52R/R176A channel (UniProt P70673+Q09427, K134A/Q52R/R176A); assay: ATP inhibition, inside-out patch-clamp recording, COSm6 cells; type: biochemical, rat Kir6.2, hamster SUR1; details: for % current: relative to maximum current in K-INT
# T1 construct: expressed in transfected cells; host or cells: COSm6
# T1 sequence (Q09427 whole entry K134A): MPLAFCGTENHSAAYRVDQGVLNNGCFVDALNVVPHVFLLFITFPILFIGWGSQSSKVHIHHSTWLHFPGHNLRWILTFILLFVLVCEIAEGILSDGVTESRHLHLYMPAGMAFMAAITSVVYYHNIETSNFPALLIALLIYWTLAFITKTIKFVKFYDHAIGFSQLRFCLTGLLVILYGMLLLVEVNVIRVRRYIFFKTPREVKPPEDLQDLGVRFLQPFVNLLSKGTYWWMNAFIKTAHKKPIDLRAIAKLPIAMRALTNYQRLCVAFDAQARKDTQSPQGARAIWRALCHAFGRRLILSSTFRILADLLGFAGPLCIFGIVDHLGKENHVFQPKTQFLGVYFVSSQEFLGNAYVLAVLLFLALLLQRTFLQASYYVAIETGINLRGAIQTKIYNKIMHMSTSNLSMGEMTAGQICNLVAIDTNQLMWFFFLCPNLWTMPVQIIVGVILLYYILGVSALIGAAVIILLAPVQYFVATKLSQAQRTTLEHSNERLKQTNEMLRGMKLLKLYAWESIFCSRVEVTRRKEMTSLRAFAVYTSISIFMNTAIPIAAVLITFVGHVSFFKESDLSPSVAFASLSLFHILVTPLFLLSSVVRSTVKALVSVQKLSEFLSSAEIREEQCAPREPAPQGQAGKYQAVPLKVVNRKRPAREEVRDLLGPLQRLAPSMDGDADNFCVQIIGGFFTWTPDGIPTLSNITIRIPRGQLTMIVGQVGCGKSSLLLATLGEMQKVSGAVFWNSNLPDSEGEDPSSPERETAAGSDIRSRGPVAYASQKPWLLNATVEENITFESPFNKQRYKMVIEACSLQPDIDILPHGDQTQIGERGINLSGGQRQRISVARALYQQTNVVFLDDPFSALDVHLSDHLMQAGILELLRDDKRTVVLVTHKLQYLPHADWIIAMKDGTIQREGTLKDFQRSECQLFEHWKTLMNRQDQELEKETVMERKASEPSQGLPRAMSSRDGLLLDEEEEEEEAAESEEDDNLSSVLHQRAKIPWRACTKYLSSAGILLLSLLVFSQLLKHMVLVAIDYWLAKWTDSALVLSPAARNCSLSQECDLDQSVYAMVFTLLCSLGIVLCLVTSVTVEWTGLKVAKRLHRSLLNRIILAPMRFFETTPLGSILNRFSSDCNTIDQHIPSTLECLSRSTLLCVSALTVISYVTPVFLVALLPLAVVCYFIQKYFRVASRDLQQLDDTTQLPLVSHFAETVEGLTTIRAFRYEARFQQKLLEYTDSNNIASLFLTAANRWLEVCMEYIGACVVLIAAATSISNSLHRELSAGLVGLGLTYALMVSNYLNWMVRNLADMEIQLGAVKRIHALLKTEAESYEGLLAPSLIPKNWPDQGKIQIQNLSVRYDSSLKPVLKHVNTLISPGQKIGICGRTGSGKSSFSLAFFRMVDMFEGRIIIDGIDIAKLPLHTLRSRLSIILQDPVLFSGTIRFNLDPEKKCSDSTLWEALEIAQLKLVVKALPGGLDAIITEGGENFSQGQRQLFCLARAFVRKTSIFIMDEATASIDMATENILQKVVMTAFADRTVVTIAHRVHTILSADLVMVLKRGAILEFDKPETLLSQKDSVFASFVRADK
# T1 sequence (P70673 whole entry Q52R/R176A): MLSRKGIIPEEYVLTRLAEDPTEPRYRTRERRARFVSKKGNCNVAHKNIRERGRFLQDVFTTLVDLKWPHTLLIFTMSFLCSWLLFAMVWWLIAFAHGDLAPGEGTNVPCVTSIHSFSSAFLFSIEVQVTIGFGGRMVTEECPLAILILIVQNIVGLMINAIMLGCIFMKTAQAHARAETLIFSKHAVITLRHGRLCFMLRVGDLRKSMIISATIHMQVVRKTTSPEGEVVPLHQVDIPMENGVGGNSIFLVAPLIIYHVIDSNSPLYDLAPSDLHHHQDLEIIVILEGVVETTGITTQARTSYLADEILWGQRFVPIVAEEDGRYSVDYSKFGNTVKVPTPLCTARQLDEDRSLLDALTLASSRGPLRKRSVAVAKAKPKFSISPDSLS
# Procedure: (§1) For electrophysiology experiments, COSm6 cells were co-transfected with various combination of WT or mutant SUR1 and Kir6.2 cDNAs (SUR1 in pECE and Kir6.2 in pCDNA3) along with the cDNA for the Green Fluorescent Protein (to facilitate identification of transfected cells) using FuGENE® 6 (Promega). Mutant SUR1 and Kir6.2 were constructed using QuikChange (mutagenesis primers are shown in Supplementary Table 2). Cells were plated onto glass coverslips 24 h after transfection and recordings made in the following two days. All experiments were performed at room temperature. Micropipettes were pulled from non-heparinized Kimble glass (Fisher Scientific) on a horizontal puller (Sutter Instrument). Electrode resistance was typically 1-2 MΩ when filled with K-INT solution containing 140 mM KCl, 10 mM K-HEPES, 1 mM K-EGTA, 1 mM EDTA, pH 7.3. ATP was added as the potassium salt. Inside-out patches of cells bathed in K-INT were voltage-clamped with an Axopatch 1D amplifier (Axon Instruments). ATP or porcine brain PIP2 (Avanti Polar Lipids; prepared in K-INT and bath sonicated in ice water for 30 min before use) were added to K-INT as specified in the figure legend. All currents were measured at a membrane potential of −50 mV (pipette voltage = +50 mV). Data were analyzed using pCLAMP10 software (Axon Instrument). Off-line analysis was performed using Clampfit and GraphPad. Data were presented as mean ± standard error of the mean (S.E.M). ATP inhibition dose-response curves were obtained by fitting data to the Hill equation (Irel = 1/(1 + ([ATP]/IC50)^H)), where Irel is the current relative to the maximum currents in K-INT solution (expressed as % current in Fig. 7c and Supplementary Fig. 7a), IC50 is the ATP concentration that causes half-maximal inhibition, and H is the Hill coefficient. Note H was allowed to vary for the curves shown in Fig. 7c and Supplementary Fig. 7a.
# SUR1^W51C/Kir6.2 channel = target: T2, SUR1^W51C/Kir6.2 channel (UniProt P70673+Q09427, W51C); assay: as above; type: biochemical, rat Kir6.2, hamster SUR1; details: for % current: mean, relative to maximum current in K-INT
# T2 construct: expressed in transfected cells; host or cells: COSm6
# T2 sequence (P70673 whole entry): as the sequence (P70673 whole entry Q52R/R176A) above, with R52Q, A176R counted along it
# T2 sequence (Q09427 whole entry W51C): as the sequence (Q09427 whole entry K134A) above, with W51C, A134K counted along it
# Procedure: as §1
# [3] = target: T3, SUR1/Kir6.2^R176A channel (UniProt P70673+Q09427, R176A); assay: as above; type: biochemical, rat Kir6.2, hamster SUR1; details: for % current: mean, relative to maximum current in K-INT
# T3 construct: expressed in transfected cells; host or cells: COSm6
# T3 sequence (Q09427 whole entry): as the sequence (Q09427 whole entry K134A) above, with A134K counted along it
# T3 sequence (P70673 whole entry R176A): as the sequence (P70673 whole entry Q52R/R176A) above, with R52Q counted along it
# Procedure: as §1
# [4] = target: T4, SUR1^K134A/Kir6.2^Q52R channel (UniProt P70673+Q09427, K134A/Q52R); assay: as above; type: biochemical, rat Kir6.2, hamster SUR1; details: for % current: mean, relative to maximum current in K-INT
# T4 construct: expressed in transfected cells; host or cells: COSm6
# T4 sequence (P70673 whole entry Q52R): as the sequence (P70673 whole entry Q52R/R176A) above, with A176R counted along it
# T4 sequence (Q09427 whole entry K134A): as the sequence (Q09427 whole entry K134A) above
# Procedure: as §1
# [5] = target: T5, SUR1^W51C/Kir6.2^Q52R channel (UniProt P70673+Q09427, Q52R/W51C); assay: as above; type: biochemical, rat Kir6.2, hamster SUR1; details: for % current: mean, relative to maximum current in K-INT
# T5 construct: expressed in transfected cells; host or cells: COSm6
# T5 sequence (P70673 whole entry Q52R): as the sequence (P70673 whole entry Q52R/R176A) above, with A176R counted along it
# T5 sequence (Q09427 whole entry W51C): as the sequence (Q09427 whole entry K134A) above, with W51C, A134K counted along it
# Procedure: as §1
# [6] = target: T6, SUR1/Kir6.2^Q52R/R176A channel (UniProt P70673+Q09427, Q52R/R176A); assay: as above; type: biochemical, rat Kir6.2, hamster SUR1; details: for % current: mean, relative to maximum current in K-INT
# T6 construct: expressed in transfected cells; host or cells: COSm6
# T6 sequence (Q09427 whole entry): as the sequence (Q09427 whole entry K134A) above, with A134K counted along it
# T6 sequence (P70673 whole entry Q52R/R176A): as the sequence (P70673 whole entry Q52R/R176A) above
# Procedure: as §1
# [7] = target: T7, SUR1^K134A/Kir6.2 channel (UniProt P70673+Q09427, K134A); assay: as above; type: biochemical, rat Kir6.2, hamster SUR1; details: for % current: mean, relative to maximum current in K-INT
# T7 construct: expressed in transfected cells; host or cells: COSm6
# T7 sequence (Q09427 whole entry K134A): as the sequence (Q09427 whole entry K134A) above
# T7 sequence (P70673 whole entry): as the sequence (P70673 whole entry Q52R/R176A) above, with R52Q, A176R counted along it
# Procedure: as §1
# [8] = target: T8, WT (SUR1/Kir6.2) KATP channels (UniProt P70673+Q09427); assay: as above; type: biochemical, rat Kir6.2, hamster SUR1; details: for % current: mean, relative to maximum current in K-INT
# T8 construct: expressed in transfected cells; host or cells: COSm6
# T8 sequence (P70673 whole entry): as the sequence (P70673 whole entry Q52R/R176A) above, with R52Q, A176R counted along it
# T8 sequence (Q09427 whole entry): as the sequence (Q09427 whole entry K134A) above, with A134K counted along it
# Procedure: as §1
# SUR1/Kir6.2^Q52R channel = target: T9, SUR1/Kir6.2^Q52R channel (UniProt P70673+Q09427, Q52R); assay: as above; type: biochemical, rat Kir6.2, hamster SUR1; details: for % current: mean, relative to maximum current in K-INT
# T9 construct: expressed in transfected cells; host or cells: COSm6
# T9 sequence (P70673 whole entry Q52R): as the sequence (P70673 whole entry Q52R/R176A) above, with A176R counted along it
# T9 sequence (Q09427 whole entry): as the sequence (Q09427 whole entry K134A) above, with A134K counted along it
# Procedure: as §1
# [9] = mean ± SEM, Hill fit, −50 mV, K-INT
structure (smiles),measurement,setting,value
Nc1ncnc2c1ncn2[C@@H]1O[C@H](COP(=O)(O)OP(=O)(O)OP(=O)(O)O)[C@@H](O)[C@H]1O [ATP],decrease in channel sensitivity to ATP inhibition,Kir6.2^Q52R KATP channel,20 fold
same,reduction of ATP inhibition IC50,[1],100 fold
same,% current,"[2]; ATP 1 μM, one cell",40.58%
same,% current,"[2]; ATP 10 μM, mean",44.57%
same,% current,"[2]; ATP 100 μM, mean",4.58%
same,% current,"[2]; ATP 1 mM, mean",-0.08%
same,% current,"[2]; ATP 5 mM, mean",0.00%
same,Hill coefficient (H) of ATP inhibition,"[2]; Hill fit, H allowed to vary",1.18
same,IC50,[2]; [9],8.3 ± 1.11 µM
same,% current,SUR1^W51C/Kir6.2 channel; ATP 1 μM,94.89%
same,% current,SUR1^W51C/Kir6.2 channel; ATP 10 μM,75.92%
same,% current,SUR1^W51C/Kir6.2 channel; ATP 100 μM,6.20%
same,% current,SUR1^W51C/Kir6.2 channel; ATP 200 μM,6.36%
same,% current,SUR1^W51C/Kir6.2 channel; ATP 1 mM,1.93%
same,% current,SUR1^W51C/Kir6.2 channel; ATP 2 mM,3.08%
same,% current,SUR1^W51C/Kir6.2 channel; ATP 5 mM,0%
same,IC50,SUR1^W51C/Kir6.2 channel; [9],20.9 ± 1.96 µM
same,% current,[3]; ATP 1 μM,83.45%
same,% current,[3]; ATP 10 μM,56.97%
same,% current,[3]; ATP 100 μM,7.94%
same,% current,[3]; ATP 1 mM,6.02%
same,% current,[3]; ATP 2 mM,1.48%
same,Hill coefficient (H) of ATP inhibition,"[3]; Hill fit, H allowed to vary",0.84
same,IC50,[3]; [9],11.3 ± 1.95 µM
same,% current,[4]; ATP 1 μM,98.42%
same,% current,[4]; ATP 10 μM,90.13%
same,% current,[4]; ATP 100 μM,32.09%
same,% current,[4]; ATP 200 μM,5.40%
same,% current,[4]; ATP 1 mM,0.80%
same,% current,[4]; ATP 5 mM,0.06%
same,Hill coefficient (H) of ATP inhibition,"[4]; Hill fit, H allowed to vary",1.55
same,IC50,[4]; [9],54.1 ± 7.14 µM
same,% current,[5]; ATP 1 μM,97.59%
same,% current,[5]; ATP 10 μM,45.50%
same,% current,[5]; ATP 100 μM,6.41%
same,% current,[5]; ATP 1 mM,1.99%
same,% current,[5]; ATP 2 mM,0.62%
same,% current,[5]; ATP 5 mM,1.82%
same,IC50,[5]; [9],8.98 ± 0.49 µM
same,% current,[6]; ATP 1 μM,93.65%
same,% current,[6]; ATP 10 μM,70.34%
same,% current,[6]; ATP 100 μM,6.88%
same,% current,[6]; ATP 200 μM,3.51%
same,% current,[6]; ATP 1 mM,0.92%
same,% current,[6]; ATP 2 mM,0.12%
same,Hill coefficient (H) of ATP inhibition,"[6]; Hill fit, H allowed to vary",1.41
same,IC50,[6]; [9],18 ± 1.2 µM
same,% current,[7]; ATP 1 μM,90.28%
same,% current,[7]; ATP 10 μM,19.80%
same,% current,[7]; ATP 100 μM,5.33%
same,% current,[7]; ATP 200 μM,0.84%
same,% current,[7]; ATP 1 mM,0.93%
same,% current,[7]; ATP 2 mM,0.25%
same,Hill coefficient (H) of ATP inhibition,"[7]; Hill fit, H allowed to vary",1.54
same,IC50,[7]; [9],4.12 ± 0.3 µM
same,% current,[8]; ATP 1 μM,84.78%
same,% current,[8]; ATP 10 μM,39.13%
same,% current,[8]; ATP 100 μM,7.09%
same,% current,[8]; ATP 200 μM,3.13%
same,% current,[8]; ATP 1 mM,4.17%
same,% current,[8]; ATP 2 mM,0.65%
same,% current,[8]; ATP 5 mM,2.98%
same,Hill coefficient (H) of ATP inhibition,"[8]; Hill fit, H allowed to vary",0.93
same,IC50,[8]; [9],6.25 ± 0.44 µM
same,% current,SUR1/Kir6.2^Q52R channel; ATP 10 μM,94.34%
same,% current,SUR1/Kir6.2^Q52R channel; ATP 100 μM,77.97%
same,% current,SUR1/Kir6.2^Q52R channel; ATP 200 μM,34.77%
same,% current,SUR1/Kir6.2^Q52R channel; ATP 1 mM,15.08%
same,% current,SUR1/Kir6.2^Q52R channel; ATP 2 mM,2.12%
same,% current,SUR1/Kir6.2^Q52R channel; ATP 5 mM,2.88%
same,Hill coefficient (H) of ATP inhibition,"SUR1/Kir6.2^Q52R channel; Hill fit, H allowed to vary",2.34
same,IC50,SUR1/Kir6.2^Q52R channel; [9],161 ± 16.2 µM
